Laboratory results published in US12195482B1 (Arcus Biosciences, Inc., priority 2022, dated 2025).

Experiments:
[1] = molecular target: T1, Axl (Homo sapiens, UniProt P30530); test: Biochemical potency, HTRF KinEASE-TK kinase assay; set-up: purchased Invitrogen; conditions: 5 nM AXL, 700 μM ATP
T1 sequence (P30530 26-894): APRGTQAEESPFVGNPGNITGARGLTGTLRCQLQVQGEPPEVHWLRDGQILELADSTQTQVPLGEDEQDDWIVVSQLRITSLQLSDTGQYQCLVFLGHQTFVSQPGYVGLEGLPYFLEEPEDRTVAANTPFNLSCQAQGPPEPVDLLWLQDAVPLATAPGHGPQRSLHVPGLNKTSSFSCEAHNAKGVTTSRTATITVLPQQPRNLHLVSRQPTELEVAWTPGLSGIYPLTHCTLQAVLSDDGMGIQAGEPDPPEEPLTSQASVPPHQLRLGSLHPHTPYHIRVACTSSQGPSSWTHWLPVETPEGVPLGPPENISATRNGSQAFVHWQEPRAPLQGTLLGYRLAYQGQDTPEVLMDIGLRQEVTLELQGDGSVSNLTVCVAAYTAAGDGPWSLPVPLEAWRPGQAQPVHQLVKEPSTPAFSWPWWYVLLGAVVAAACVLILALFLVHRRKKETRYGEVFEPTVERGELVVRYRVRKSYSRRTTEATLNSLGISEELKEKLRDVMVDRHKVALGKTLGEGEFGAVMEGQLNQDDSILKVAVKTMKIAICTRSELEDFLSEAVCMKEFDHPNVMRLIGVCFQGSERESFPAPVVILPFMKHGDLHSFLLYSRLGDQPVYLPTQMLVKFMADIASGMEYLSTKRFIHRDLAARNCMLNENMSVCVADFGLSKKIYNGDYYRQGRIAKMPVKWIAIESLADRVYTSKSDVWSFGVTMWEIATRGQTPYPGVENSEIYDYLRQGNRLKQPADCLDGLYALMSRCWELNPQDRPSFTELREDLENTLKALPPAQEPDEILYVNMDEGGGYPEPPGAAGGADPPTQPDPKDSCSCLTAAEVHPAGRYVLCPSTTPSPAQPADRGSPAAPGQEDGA
In short: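 Enzyme (AXL 5 nM; TYRO3 or MER 1 nM final) was preincubated with compound for 1 h at RT, then reacted for 2 h at RT with 800 nM biotinylated TK substrate and 700 µM ATP in HEPES pH 7.4, MgCl2, DTT, BSA, 1% DMSO. Percent activity came from the HTRF 665/620 ratio.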

[2] = molecular target: T2, p-AXL (Homo sapiens, UniProt P30530); test: Axl phosphorylation inhibition ELISA in HEK293T cells transfected with NanoLuc-tagged AXL; type: cell-based; conditions: 1 h compound incubation, media (OptiMEM)
T2 construct: expressed in transfected cells; host or cells: HEK293T
T2 sequence (P30530 26-894): T1 sequence (P30530 26-894)
In short: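 HEK293T cells transiently transfected one day earlier with NanoLuc-tagged AXL were exposed to 22-point 2-fold compound dilutions for 1 h at 37° C (70,000 cells/well), then lysed. Lysates captured on anti-phospho-tyrosine coated plates for 2 h; bound p-AXL read by NanoLuc luminescence; IC50 from 4-parameter logistic fit.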

| Compound | IC50 [1] | IC50 [2] |
| --- | --- | --- |
| Cc1cccnc1-c1ccc(-c2c[nH]c3ncc(-c4ccc5c(c4)CC[C@@](C)(N4CCC[C@H]4C)CC5)cc23)cc1 [Example 172, 3-Methyl-2-(4-{5-[(7S)-7-methyl-7-[(2R)-2-methylpyrrolidin-1-yl]-6,7,8,9-tetrahydro-5H-benzo[7]annulen-2-yl]-1H-pyrrolo[2,3-b]pyridin-3-yl}phenyl)pyridine] | < 100 nM | < 100 nM |
| Cc1ccnnc1-c1ccc(-c2n[nH]c3ncc(-c4ccc5c(c4)CC[C@@H](N4C6COCC4C6)CC5)cc23)cc1 [Example 176, 6-[(7S)-2-{3-[4-(4-Methylpyridazin-3-yl)phenyl]-1H-pyrazolo[3,4-b]pyridin-5-yl}-6,7,8,9-tetrahydro-5H-benzo[7]annulen-7-yl]-3-oxa-6-azabicyclo[3.1.1]heptane] | < 100 nM | < 100 nM |
| CN(C)C(=O)c1ccccc1-c1ccc(-c2n[nH]c3ncc(-c4ccc5c(c4)CC[C@@H](N4C6COCC4C6)CC5)cc23)cc1 [Example 12, N,N-Dimethyl-4′-{5-[(7S)-7-{3-oxa-6-azabicyclo[3.1.1]heptan-6-yl}-6,7,8,9-tetrahydro-5H-benzo[7]annulen-2-yl]-2H-pyrazolo[3,4-b]pyridin-3-yl}-[1,1′-biphenyl]-2-carboxamide] | < 100 nM | < 100 nM |
| CS(=O)(=O)c1cccnc1-c1ccc(-c2c[nH]c3ncc(-c4ccc5c(c4)CC[C@@H](N4C6COCC4C6)CC5)cc23)cc1 [Example 102, 6-[(7S)-2-{3-[4-(3-Methanesulfonylpyridin-2-yl)phenyl]-1H-pyrrolo[2,3-b]pyridin-5-yl}-6,7,8,9-tetrahydro-5H-benzo[7]annulen-7-yl]-3-oxa-6-azabicyclo[3.1.1]heptane] | < 100 nM | < 100 nM |
| c1cnc(-c2ccc(-c3n[nH]c4ncc(-c5ccc6c(c5)CC[C@@H](N5C7COCC5C7)CC6)cc34)cc2)c(C2CC2)c1 [Example 179, 6-[(7S)-2-{3-[4-(3-Cyclopropylpyridin-2-yl)phenyl]-1H-pyrazolo[3,4-b]pyridin-5-yl}-6,7,8,9-tetrahydro-5H-benzo[7]annulen-7-yl]-3-oxa-6-azabicyclo[3.1.1]heptane] | < 100 nM | 100 to 1000 nM |
| c1ccc(-c2ccc(-c3n[nH]c4ncc(-c5ccc6c(c5)CC[C@@H](N5C7COCC5C7)CC6)cc34)cc2)nc1 [Example 154, 6-[(7S)-2-{3-[4-(Pyridin-2-yl)phenyl]-2H-pyrazolo[3,4-b]pyridin-5-yl}-6,7,8,9-tetrahydro-5H-benzo[7]annulen-7-yl]-3-oxa-6-azabicyclo[3.1.1]heptane] | < 100 nM | < 100 nM |
| Cc1cccnc1-c1ccc(-c2c[nH]c3ncc(-c4ccc5c(c4)CC[C@@H](N4CCCC4)CC5)cc23)cc1 [Example 173, 3-Methyl-2-(4-{5-[(7S)-7-(pyrrolidin-1-yl)-6,7,8,9-tetrahydro-5H-benzo[7]annulen-2-yl]-1H-pyrrolo[2,3-b]pyridin-3-yl}phenyl)pyridine] | < 100 nM | < 100 nM |
| C[C@@H]1COC(=O)N1c1cccnc1-c1ccc(-c2n[nH]c3ncc(-c4ccc5c(c4)CC[C@@H](N4C6COCC4C6)CC5)cc23)cc1 [Example 124, (4R)-4-Methyl-3-[2-(4-{5-[(7S)-7-{3-oxa-6-azabicyclo[3.1.1]heptan-6-yl}-6,7,8,9-tetrahydro-5H-benzo[7]annulen-2-yl]-1H-pyrazolo[3,4-b]pyridin-3-yl}phenyl)pyridin-3-yl]-1,3-oxazolidin-2-one] | < 100 nM | < 100 nM |
| CO[C@H]1C[C@@H](N[C@H]2CCc3ccc(-c4cnc5[nH]nc(-c6ccc(-c7ncccc7C)cc6)c5c4)cc3CC2)C1 [Example 131, (7S)-2-{3-[4-(3-Methylpyridin-2-yl)phenyl]-1H-pyrazolo[3,4-b]pyridin-5-yl}-N-[cis-3-methoxycyclobutyl]-6,7,8,9-tetrahydro-5H-benzo[7]annulen-7-amine] | < 100 nM | 100 to 1000 nM |

Further lines, results first:

| IC50 [1] | IC50 [2] | Compound |
| --- | --- | --- |
| < 100 nM | < 100 nM | CCc1cccnc1-c1ccc(-c2n[nH]c3ncc(-c4ccc5c(c4)CC[C@@H](N4C6COCC4C6)CC5)cc23)cc1 [Example 182, 6-[(7S)-2-{3-[4-(3-Ethylpyridin-2-yl)phenyl]-1H-pyrazolo[3,4-b]pyridin-5-yl}-6,7,8,9-tetrahydro-5H-benzo[7]annulen-7-yl]-3-oxa-6-azabicyclo[3.1.1]heptane] |
| < 100 nM | 100 to 1000 nM | c1cncc(-c2ccc(-c3c[nH]c4ncc(-c5ccc6c(c5)CC[C@@H](N5C7COCC5C7)CC6)cc34)cc2)c1 [Example 158, 6-[(7S)-2-{3-[4-(Pyridin-3-yl)phenyl]-1H-pyrrolo[2,3-b]pyridin-5-yl}-6,7,8,9-tetrahydro-5H-benzo[7]annulen-7-yl]-3-oxa-6-azabicyclo[3.1.1]heptane] |
| < 100 nM | < 100 nM | O=C1CCCCN1c1cccnc1-c1ccc(-c2n[nH]c3ncc(-c4ccc5c(c4)CC[C@@H](N4C6COCC4C6)CC5)cc23)cc1 [Example 127, 1-[2-(4-{5-[(7S)-7-{3-Oxa-6-azabicyclo[3.1.1]heptan-6-yl}-6,7,8,9-tetrahydro-5H-benzo[7]annulen-2-yl]-1H-pyrazolo[3,4-b]pyridin-3-yl}phenyl)pyridin-3-yl]piperidin-2-one] |
| < 100 nM | 100 to 1000 nM | C[C@@H]1CCCN1[C@@]1(C)CCc2ccc(-c3cnc4[nH]cc(-c5ccc(-c6ccccn6)cc5)c4c3)cc2CC1 [Example 156, 2-(4-{5-[(7S)-7-Methyl-7-[(2R)-2-methylpyrrolidin-1-yl]-6,7,8,9-tetrahydro-5H-benzo[7]annulen-2-yl]-1H-pyrrolo[2,3-b]pyridin-3-yl}phenyl)pyridine] |
| < 100 nM | 100 to 1000 nM | Cc1cccnc1-c1ccc(-c2c[nH]c3ncc(-c4ccc5c(c4)CC[C@@H](N[C@H]4CCCOC4)CC5)cc23)cc1 [Example 186, (3S)—N-[(7S)-2-{3-[4-(3-Methylpyridin-2-yl)phenyl]-1H-pyrrolo[2,3-b]pyridin-5-yl}-6,7,8,9-tetrahydro-5H-benzo[7]annulen-7-yl]oxan-3-amine] |
| < 100 nM | 100 to 1000 nM | c1ccc(-c2ccc(-c3c[nH]c4ncc(-c5ccc6c(c5)CC[C@@H](N[C@H]5CCCOC5)CC6)cc34)cc2)nc1 [Example 32, (3S)—N-[(7S)-3-[3-(4-Pyridin-2-ylphenyl)-1H-pyrrolo[2,3-b]pyridin-5-yl]-6,7,8,9-tetrahydro-5H-benzo[7]annulen-7-yl]oxan-3-amine] |
| < 100 nM | < 100 nM | CCc1cccnc1-c1ccc(-c2c[nH]c3ncc(-c4ccc5c(c4)CC[C@@H](N4C6COCC4C6)CC5)cc23)cc1 [Example 183, 6-[(7S)-2-{3-[4-(3-Ethylpyridin-2-yl)phenyl]-1H-pyrrolo[2,3-b]pyridin-5-yl}-6,7,8,9-tetrahydro-5H-benzo[7]annulen-7-yl]-3-oxa-6-azabicyclo[3.1.1]heptane] |
| < 100 nM | 100 to 1000 nM | Cc1ccccc1-c1ccc(-c2n[nH]c3ncc(-c4ccc5c(c4)CC[C@@H](N4C6COCC4C6)CC5)cc23)nc1 [Example 98, 6-[(7S)-2-{3-[5-(2-Methylphenyl)pyridin-2-yl]-1H-pyrazolo[3,4-b]pyridin-5-yl}-6,7,8,9-tetrahydro-5H-benzo[7]annulen-7-yl]-3-oxa-6-azabicyclo[3.1.1]heptane] |
| < 100 nM | < 100 nM | CN(C)C(=O)c1cccnc1-c1ccc(-c2c[nH]c3ncc(-c4ccc5c(c4)CC[C@@H](N4C6COCC4C6)CC5)cc23)cc1 [Example 165, N,N-Dimethyl-2-(4-{5-[(7S)-7-{3-oxa-6-azabicyclo[3.1.1]heptan-6-yl}-6,7,8,9-tetrahydro-5H-benzo[7]annulen-2-yl]-1H-pyrrolo[2,3-b]pyridin-3-yl}phenyl)pyridine-3-carboxamide] |
| < 100 nM | 100 to 1000 nM | CN(C)C(=O)c1cccc(-c2ccc(-c3n[nH]c4ncc(-c5ccc6c(c5)CC[C@@H](N5C7COCC5C7)CC6)cc34)cc2)n1 [Example 94, N,N-Dimethyl-6-(4-{5-[(7S)-7-{3-oxa-6-azabicyclo[3.1.1]heptan-6-yl}-6,7,8,9-tetrahydro-5H-benzo[7]annulen-2-yl]-2H-pyrazolo[3,4-b]pyridin-3-yl}phenyl)pyridine-2-carboxamide] |
